Among the data in patent publication US20160002247A1, “8-SUBSTITUTED IMIDAZOPYRIMIDINONE DERIVATIVE HAVING AUTOTAXIN INHIBITORY ACTIVITY” (THE UNIVERSITY OF TOKYO, priority 2013, published 2016) are IC50 values, retold here.

Where only a bound is given, the exact number is not on record here.

The target of this test is T1, Human autotaxin enzyme (Homo sapiens, UniProt Q13822).
T1 construct: purchased R&D System
Kind of test: Evaluation of autotaxin inhibitor, Method C (Test Example 3): 18:0 Lyso PC, choline assay, Resorufin fluorescence. In kind it is biochemical. The note with it: Assay Method C (Test Example 3), human autotaxin, 18:0 Lyso PC substrate; read-out: Inhibitory Activity (autotaxin enzyme inhibitory activity, IC50 class). The essentials: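 Choline-coupled fluorescence readout (20 min, resorufin at 531/598 nm) followed a 2 h room-temperature reaction of human autotaxin with 18:0 Lyso PC substrate (added as 200 μM solution) in pH 7.5 Tris buffer containing MgCl2 and Triton X-100. Percent inhibition scaled to no-compound (0%) and no-enzyme (100%) wells and plotted versus concentration.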
As for `CCCCCn1c(NC2(C(=O)O)CC2)cc(=O)n2cc(-c3ccc(Cl)cc3)nc12` [Compound 610], the IC50 (as a rule, the point on the concentration scale where inhibition reaches its midpoint) was more than 1000 nM.
As to `CCCCCn1c(NCCCCC(=O)O)cc(=O)n2cc(-c3ccc(Cl)cc3)nc12` [Compound 611], the IC50 lay within 10 to 100 nM.
With `CCCCCn1c(N2CCCC[C@@H]2C(=O)O)cc(=O)n2cc(-c3ccc(Cl)cc3)nc12` [Compound 612], the IC50 was 100 to 1000 nM.
Then `CCCCCn1c(N[C@@H]2CCC[C@H]2C(=O)O)cc(=O)n2cc(-c3ccc(Cl)cc3)nc12` [Compound 613], with 10 to 100 nM.
Consider `CCCCCn1c(N2CCN(C(=O)OC(C)(C)C)C(C(=O)NCCC(=O)O)C2)cc(=O)n2cc(-c3ccc(Cl)cc3)nc12` (centres unmarked) [Compound 614], for which the IC50 fell in the range of 100 to 1000 nM.
For the compound `CCCCCn1c(N2CCC[C@H]2CC(=O)NCCC(=O)O)cc(=O)n2cc(-c3ccc(Cl)cc3)nc12` [Compound 615], the IC50 was less than 10 nM.
The value for `CCCCCn1c(N2CCC[C@H](C(=O)NCCC(=O)O)C2)cc(=O)n2cc(-c3ccc(Cl)cc3)nc12` [Compound 616] was less than 10 nM; that for `CCCCCn1c(NCCC(=O)NCCC(=O)O)cc(=O)n2cc(-c3ccc(Cl)cc3)nc12` [Compound 617] was 100 to 1000 nM.
Then `CCCCCn1c(N(C)CC(=O)NCCC(=O)O)cc(=O)n2cc(-c3ccc(Cl)cc3)nc12` [Compound 618], with 10 to 100 nM; and `CCCCCn1c(N2CCN(C(=O)OC(C)(C)C)C[C@@H]2C(=O)NCCC(=O)O)cc(=O)n2cc(-c3ccc(Cl)cc3)nc12` [Compound 619], with 10 to 100 nM; and `CCCCCn1c(N2CCN(C(=O)OC(C)(C)C)C[C@H]2C(=O)NCCC(=O)O)cc(=O)n2cc(-c3ccc(Cl)cc3)nc12` [Compound 620], with less than 10 nM.
On to `CCCCCn1c(N2CCCC[C@H]2C(=O)NCCC(=O)O)cc(=O)n2cc(-c3ccc(Cl)cc3)nc12` [Compound 621], for which the IC50 was less than 10 nM.
Consider `CCCCCn1c(N2CCC[C@@H]2CC(=O)NCCC(=O)O)cc(=O)n2cc(-c3ccc(Cl)cc3)nc12` [Compound 622], for which the half-maximal inhibitory concentration (IC50) lay within 100 to 1000 nM.
As to `CCCCCn1c(N2CCC[C@@]2(C)C(=O)NCCC(=O)O)cc(=O)n2cc(-c3ccc(Cl)cc3)nc12` [Compound 623], the IC50 lay in the range of 100 to 1000 nM.
Consider `CCCCCn1c(N2CCC[C@@H](C(=O)NCCC(=O)O)C2)cc(=O)n2cc(-c3ccc(Cl)cc3)nc12` [Compound 624], for which the IC50 lay in the range of 10 to 100 nM.
The value for `CCCCCn1c(NC2(C(=O)NCCC(=O)O)CC2)cc(=O)n2cc(-c3ccc(Cl)cc3)nc12` [Compound 625] was 100 to 1000 nM; that for `CCCCCn1c(N2CCCC[C@@H]2C(=O)NCCC(=O)O)cc(=O)n2cc(-c3ccc(Cl)cc3)nc12` [Compound 626] was 10 to 100 nM.
The value for `CCCCCn1c(N2CCN(C(=O)OC(C)(C)C)C(C(=O)NCC(=O)O)C2)cc(=O)n2cc(-c3ccc(Cl)cc3)nc12` (centres unmarked) [Compound 627] was 100 to 1000 nM; that for `CCCCCn1c(N2CCC[C@H]2CC(=O)NCC(=O)O)cc(=O)n2cc(-c3ccc(Cl)cc3)nc12` [Compound 628] was less than 10 nM; that for `CCCCCn1c(N2CCC[C@H](C(=O)NCC(=O)O)C2)cc(=O)n2cc(-c3ccc(Cl)cc3)nc12` [Compound 629] was less than 10 nM.
As to `CCCCCn1c(NCCC(=O)NCC(=O)O)cc(=O)n2cc(-c3ccc(Cl)cc3)nc12` [Compound 630], the concentration for half-maximal inhibition (IC50) fell in the range of 100 to 1000 nM.
`CCCCCn1c(N2CCN(C(=O)OC(C)(C)C)C[C@@H]2C(=O)NCC(=O)O)cc(=O)n2cc(-c3ccc(Cl)cc3)nc12` [Compound 631]: the half-maximal inhibitory concentration (IC50) fell in the range of 100 to 1000 nM.
Turning to `CCCCCn1c(N2CCN(C(=O)OC(C)(C)C)C[C@H]2C(=O)NCC(=O)O)cc(=O)n2cc(-c3ccc(Cl)cc3)nc12` [Compound 632], the IC50 was 10 to 100 nM.
Then `CCCCCn1c(N2CCCC[C@H]2C(=O)NCC(=O)O)cc(=O)n2cc(-c3ccc(Cl)cc3)nc12` [Compound 633], with 10 to 100 nM.
Take `CCCCCn1c(N2CCC[C@@H]2CC(=O)NCC(=O)O)cc(=O)n2cc(-c3ccc(Cl)cc3)nc12` [Compound 634]: the IC50 was in the range of 100 to 1000 nM.
With `CCCCCn1c(N2CCC[C@@]2(C)C(=O)NCC(=O)O)cc(=O)n2cc(-c3ccc(Cl)cc3)nc12` [Compound 635], the half-maximal inhibitory concentration (IC50) is more than 1000 nM.
On to `CCCCCn1c(N2CCC[C@@H](C(=O)NCC(=O)O)C2)cc(=O)n2cc(-c3ccc(Cl)cc3)nc12` [Compound 636], for which the IC50 was 10 to 100 nM.
As to `CCCCCn1c(NC2(C(=O)NCC(=O)O)CC2)cc(=O)n2cc(-c3ccc(Cl)cc3)nc12` [Compound 637], the half-inhibitory concentration (IC50) is more than 1000 nM.
Then `CCCCCn1c(N2CCCC[C@@H]2C(=O)NCC(=O)O)cc(=O)n2cc(-c3ccc(Cl)cc3)nc12` [Compound 638], with 100 to 1000 nM.
Consider `CCCCCn1c(N2CCN(C(=O)OC(C)(C)C)C(C(=O)O)C2)cc(=O)n2cc(-c3ccc(Cl)cc3)nc12` (centres unmarked) [Compound 639], for which the half-inhibitory concentration (IC50) is 100 to 1000 nM.
In the case of `CCCCCn1c(N2CCN(C(=O)OC(C)(C)C)C[C@@H]2C(=O)O)cc(=O)n2cc(-c3ccc(Cl)cc3)nc12` [Compound 640], the IC50 was more than 1000 nM.
For the compound `CCCCCn1c(N2CCN(C(=O)OC(C)(C)C)C[C@H]2C(=O)O)cc(=O)n2cc(-c3ccc(Cl)cc3)nc12` [Compound 641], the half-inhibitory concentration (IC50) was more than 1000 nM.
Then `CCCCCn1c(N2CCC[C@H]2C(=O)NCCCN2CCCC2=O)cc(=O)n2cc(-c3ccc(Cl)cc3)nc12` [Compound 642], with 10 to 100 nM; and `CCCCCn1c(N2CCC[C@H]2C(=O)NCCN2CCCCC2)cc(=O)n2cc(-c3ccc(Cl)cc3)nc12` [Compound 643], with 100 to 1000 nM; and `CCCCCn1c(N2CCC[C@H]2C(=O)NCCN2CCOCC2)cc(=O)n2cc(-c3ccc(Cl)cc3)nc12` [Compound 644], with 100 to 1000 nM.
Take `CCCCCn1c(N2CCC[C@H]2C(=O)NCCN(C)C)cc(=O)n2cc(-c3ccc(Cl)cc3)nc12` [Compound 645]: the concentration for half-maximal inhibition (IC50) fell in the range of 100 to 1000 nM.
Take `CCCCCn1c(N2CCC[C@H]2C(=O)NCCCN(C)C)cc(=O)n2cc(-c3ccc(Cl)cc3)nc12` [Compound 646]: the IC50 was more than 1000 nM.
For the compound `CCCCCn1c(N2CCC[C@H]2C(=O)NCCN2CCCC2)cc(=O)n2cc(-c3ccc(Cl)cc3)nc12` [Compound 647], the concentration for half-maximal inhibition (IC50) was more than 1000 nM.
Turning to `CCCCCn1c(N2CCC[C@H]2C(=O)NCCCN2CCCC2)cc(=O)n2cc(-c3ccc(Cl)cc3)nc12` [Compound 648], the half-inhibitory concentration (IC50) was more than 1000 nM.
Consider `CCCCCn1c(N2CCC[C@H]2C(=O)NCCCN2CCN(C)CC2)cc(=O)n2cc(-c3ccc(Cl)cc3)nc12` [Compound 649], for which the IC50 was 10 to 100 nM.
Then `CCCCCn1c(N2CCC[C@H]2C(=O)NCC2CCN(C)C2)cc(=O)n2cc(-c3ccc(Cl)cc3)nc12` (some centres unmarked) [Compound 650], with more than 1000 nM; and `CCCCCn1c(N2CCC[C@H]2C(=O)NCCCCCCN(C)C)cc(=O)n2cc(-c3ccc(Cl)cc3)nc12` [Compound 651], with 10 to 100 nM.
Consider `CCCCCn1c(N2CCC[C@H]2C(=O)NCCCCN2CCN(C)CC2)cc(=O)n2cc(-c3ccc(Cl)cc3)nc12` [Compound 652], for which the IC50 was 10 to 100 nM.
Turning to `CCCCCn1c(N2CCC[C@H]2C(=O)NCCCCCN(C)C)cc(=O)n2cc(-c3ccc(Cl)cc3)nc12` [Compound 653], the half-inhibitory concentration (IC50) was in the range of 100 to 1000 nM.
On to `CCCCCn1c(N2CCC[C@H]2C(=O)NCCCCCN2CCOCC2)cc(=O)n2cc(-c3ccc(Cl)cc3)nc12` [Compound 654], for which the IC50 was less than 10 nM.
Then `CCCCCn1c(N2CCC[C@H]2C(=O)NCCCN(C)C(=O)OC(C)(C)C)cc(=O)n2cc(-c3ccc(Cl)cc3)nc12` [Compound 655], with 100 to 1000 nM.
Then `CCCCCn1c(N2CCC[C@H]2C(=O)NCCCCN(C)C)cc(=O)n2cc(-c3ccc(Cl)cc3)nc12` [Compound 656], with 100 to 1000 nM; and `CCCCCn1c(N2CCC[C@H]2C(=O)NCCCCN2CC(C)OC(C)C2)cc(=O)n2cc(-c3ccc(Cl)cc3)nc12` (some centres unmarked) [Compound 657], with less than 10 nM; and `CCCCCn1c(N2CCNC(C(=O)O)C2)cc(=O)n2cc(-c3ccc(Cl)cc3)nc12` (centres unmarked) [Compound 658], with 10 to 100 nM.
The value for `CCCCCn1c(N2CCNC[C@@H]2C(=O)O)cc(=O)n2cc(-c3ccc(Cl)cc3)nc12` [Compound 659] was more than 1000 nM; that for `CCCCCn1c(N2CCNC[C@H]2C(=O)O)cc(=O)n2cc(-c3ccc(Cl)cc3)nc12` [Compound 660] was more than 1000 nM; that for `CCCCCn1c(N2CCC[C@H]2C(=O)NCCCNC)cc(=O)n2cc(-c3ccc(Cl)cc3)nc12` [Compound 661] was more than 1000 nM.
For the compound `CCCCCn1c(N2CCNC(C(=O)NCCC(=O)O)C2)cc(=O)n2cc(-c3ccc(Cl)cc3)nc12` (centres unmarked) [Compound 662], the 50% inhibitory concentration (IC50) was in the range of 10 to 100 nM.
As to `CCCCCn1c(N2CCNC[C@@H]2C(=O)NCCC(=O)O)cc(=O)n2cc(-c3ccc(Cl)cc3)nc12` [Compound 663], the half-inhibitory concentration (IC50) is 100 to 1000 nM.
The value for `CCCCCn1c(N2CCNC[C@H]2C(=O)NCCC(=O)O)cc(=O)n2cc(-c3ccc(Cl)cc3)nc12` [Compound 664] was 10 to 100 nM.
Then `CCCCCn1c(N2CCNC(C(=O)NCC(=O)O)C2)cc(=O)n2cc(-c3ccc(Cl)cc3)nc12` (centres unmarked) [Compound 665], with 10 to 100 nM; and `CCCCCn1c(N2CCNC[C@@H]2C(=O)NCC(=O)O)cc(=O)n2cc(-c3ccc(Cl)cc3)nc12` [Compound 666], with 10 to 100 nM.
For `CCCCCn1c(N2CCNC[C@H]2C(=O)NCC(=O)O)cc(=O)n2cc(-c3ccc(Cl)cc3)nc12` [Compound 667], the IC50 fell in the range of 10 to 100 nM.
For the compound `CCCCCn1c(N2CCC[C@H]2C(=O)NCCOCCN2C(=O)C=CC2=O)cc(=O)n2cc(-c3ccc(Cl)cc3)nc12` [Compound 668], the IC50 was in the range of 100 to 1000 nM.
On to `CCCCCn1c(N2CC[C@@H](C(=O)O)C2)cc(=O)n2cc(-c3ccc(Cl)cc3)nc12` [Compound 669], for which the half-inhibitory concentration (IC50) lay within 10 to 100 nM.
Turning to `CCCCCn1c(N2CC[C@H](C(=O)O)C2)cc(=O)n2cc(-c3ccc(Cl)cc3)nc12` [Compound 670], the concentration for half-maximal inhibition (IC50) was in the range of 10 to 100 nM.
The value for `CCCCCn1c(N2CCC[C@H](C(=O)OCC)C2)cc(=O)n2cc(-c3ccc(Cl)cc3)nc12` [Compound 671] was 100 to 1000 nM.
